# In patent publication US9238034B2, “FN14 antagonists and therapeutic uses thereof” (THE TRANSLATIONAL GENOMICS RESEARCH INSTITUTE, priority 2013, dated 2016):
# Where two headings read alike, the source gives them in different places.
# Target: T1, Fn14-TWEAK binding (Homo sapiens, UniProt Q9NP84)
# T1 construct: the human Fc fragment-tagged Fn14 extracellular domain (R&D Systems) was captured; purchased R&D Systems (Fn14-Fc); Peprotech (recombinant TWEAK)
# T1 sequence (Q9NP84 28-80 limits assumed): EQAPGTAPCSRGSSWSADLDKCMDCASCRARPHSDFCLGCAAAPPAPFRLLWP
# Assay: Double sandwich ELISA small molecule screening of TWEAK binding to captured Fn14-Fc
# Method: Double Sandwich ELISA. sTWEAK and sTWEAK variant proteins were synthesized as described above. The expression level of each IVTT synthesized sTWEAK protein was analyzed by western blot analysis and used in approximately equal amounts in the ELISA. To assay the binding of wild type sTWEAK and sTWEAK variants to Fn14, the human Fc fragment-tagged Fn14 extracellular domain (R&D Systems) was captured in an Immuno 96-microwell white plate by adding 100 μL of 0.025 μg/mL Fn14-Fc to wells coated with goat anti-human Fcγ fragment specific monoclonal antibody. After capture, the wells were washed 3× with Dulbecco's Phosphate Buffered Saline (DPBS) containing 0.05% Tween-20. Unbound sites were blocked by addition of 100 μL of blocking solution containing 0.05% Tween-20, 1% BSA, and 3% normal goat serum (NGS) in DPBS for 1 hr at room temperature. 0.01 μL of sTWEAK or sTWEAK variant made with the human IVTT kit or 2 μL of sTWEAK or sTWEAK variant made with the rabbit IVTT kit was diluted in 100 μL of sample diluent (DPBS+1% BSA+0.005% Tween-20) and then added to the wells for 2 hr followed by addition of 100 μL of 50 ng/mL biotinylated TWEAK detection antibody (R&D Systems) in sample diluent. Following incubation for additional 2 hr at room temperature, wells were washed 3× with DPBS containing 0.05% Tween-20 and bound biotinylated TWEAK antibody was detected by incubation with an HRP-conjugated streptavidin. The total luminescent signal was obtained using Femto ELISA kit (Pierce Biochemical) and compared to the standard curve signal obtained from the binding of 0-4000 pg/mL recombinant TWEAK (Peprotech inc) to Fn14-Fc. Using 5-parameter logistic curve fitting for standard curve analysis (Sigmaplot 11.0, SyStat Software Inc.), binding of sTWEAK or TWEAK variant to Fn14-Fc was determined. The data represents that observed for at least four replicate assays.
# The small molecule screening was performed using the ELISA assay described above with minor modifications. Briefly, after capturing Fn14-Fc in the microwell plate, 80 μl of drug solution in sample diluent was added to desired wells and incubated for 2 hrs at room temperature. Subsequently, 20 μL of 2500 pg/mL (5×) TWEAK was added to each well to achieve final TWEAK concentration of 500 pg/mL and incubated for additional 2 hr at room temperature. Bound TWEAK was detected as described in the protocol above. All small molecule inhibitors were screened at 25 μM final concentration (final DMSO concentration of 0.125%) in duplicate. Cyclohexamide, a non-specific small molecule, at 25 μM concentration was used as negative control. The anti-Fn14 antibody ITEM-4, added at 2.5 μg/mL, was used as a positive control for complete blockade of TWEAK binding. Reduction in TWEAK binding due to compound addition or controls was calculated by using standard curve (Separate standard curve was obtained for every screening plate).
# [1] = Table 3, first round of screening, 25 μM, average of duplicate, read-out: % Reduction in TWEAK Binding, Average
# [2] = Table 3, first round of screening, 25 μM, replicate 1, read-out: % Reduction in TWEAK Binding, Data 1
# [3] = Table 3, first round of screening, 25 μM, replicate 2, read-out: % Reduction in TWEAK Binding, Data 2
# [4] = Table 5, 25 μM, average of duplicate, read-out: % Reduction in TWEAK Binding, Average
# [5] = Table 5, 25 μM, replicate 1, read-out: % Reduction in TWEAK Binding, Data 1
# [6] = Table 5, 25 μM, replicate 2, read-out: % Reduction in TWEAK Binding, Data 2
# [7] = first round of screening, 25 μM, read-out: average inhibition in TWEAK-Fn14 binding
# [8] = Table 4, second screening iteration, 25 μM, average of duplicate, read-out: % Reduction in TWEAK Binding, Average
# [9] = Table 4, second screening iteration, 25 μM, replicate 1, read-out: % Reduction in TWEAK Binding, Data 1
# [10] = Table 4, second screening iteration, 25 μM, replicate 2, read-out: % Reduction in TWEAK Binding, Data 2
SMILES,inhibition at 25 µM [1],inhibition at 25 µM [2],inhibition at 25 µM [3],inhibition at 25 µM [4],inhibition at 25 µM [5],inhibition at 25 µM [6],inhibition at 25 µM [7],inhibition at 25 µM [8],inhibition at 25 µM [9],inhibition at 25 µM [10],"inhibition at 25 µM (first round of screening, 25 μM, read-out: single point activities / individual data points, inhibition of the Fn14-TWEAK interaction)"
CCOCCCNC(=O)C(=O)NCc1n[nH]c(=O)c2ccccc12 [Compound F044-0058],12%,9.99%,14.1%,12%,9.99%,14.1%,–,–,–,–,–
O=C(NCc1ccccc1)C(=O)NCc1n[nH]c(=O)c2ccccc12 [Compound F044-0075],13%,13.2%,12.8%,13%,13.2%,12.8%,< 15%,–,–,–,–
O=C(NCc1ccccc1Cl)C(=O)NCc1n[nH]c(=O)c2ccccc12 [Compound F044-0076],10.9%,8.55%,13.2%,10.9%,8.55%,13.2%,–,1.62%,-2.3%,5.55%,–
O=C(NCc1cccnc1)C(=O)NCc1n[nH]c(=O)c2ccccc12 [Compound F044-0083],11%,11.1%,10.8%,11%,11.1%,10.8%,–,–,–,–,–
O=C(CSc1ccccc1)Nc1cccc2nsnc12 [Compound F281-0079],–,–,–,14.6%,15.5%,13.7%,–,14.6%,15.5%,13.7%,–
O=C(CSc1nnc(-c2ccccc2)c(-c2ccccc2)n1)Nc1ccccc1 [Compound G003-0114],–,–,–,13%,14.7%,11.3%,–,13%,14.7%,11.3%,–

# Now from value to compound:
inhibition at 25 µM [1],inhibition at 25 µM [2],inhibition at 25 µM [3],inhibition at 25 µM [4],inhibition at 25 µM [5],inhibition at 25 µM [6],inhibition at 25 µM [7],inhibition at 25 µM [8],inhibition at 25 µM [9],inhibition at 25 µM [10],"inhibition at 25 µM (first round of screening, 25 μM, read-out: single point activities / individual data points, inhibition of the Fn14-TWEAK interaction)",SMILES
11.5%,12.6%,10.4%,11.5%,12.6%,10.4%,–,–,–,–,–,O=C(NCc1ccc(F)cc1)C(=O)NCc1n[nH]c(=O)c2ccccc12 [Compound F044-0077]
11.6%,9.04%,14.2%,11.6%,9.04%,14.2%,–,–,–,–,–,CCC(=O)Nc1ccccc1-c1nnc(SC(CC)C(=O)Nc2cccc(OC)c2)[nH]c1=O (stereo not drawn) [Compound F151-0392]
10.9%,8.79%,13%,10.9%,8.79%,13%,–,–,–,–,–,CCC(=O)Nc1ccccc1-c1nnc(SC(C)C(=O)Nc2cccc(Cl)c2C)[nH]c1=O (stereo not drawn) [Compound F151-0419]
15.5%,18.9%,12.2%,15.5%,18.9%,12.2%,> 15%,–,–,–,–,CCC(=O)Nc1ccccc1-c1nnc(SC(CC)C(=O)Nc2cc(OC)cc(OC)c2)[nH]c1=O (stereo not drawn) [Compound F151-0435]
11.1%,10.7%,11.5%,11.1%,10.7%,11.5%,–,–,–,–,–,CCC(=O)Nc1ccccc1-c1nnc(SCC(=O)Nc2cc(C)ccc2C)[nH]c1=O [Compound F151-0458]
10.3%,14.7%,5.86%,10.3%,14.7%,5.86%,–,–,–,–,–,CCC(=O)Nc1ccccc1-c1nnc(SCC(=O)Nc2ccc(OC)cc2)[nH]c1=O [Compound F151-0485]
14.2%,20.3%,8.06%,14.2%,20.3%,8.06%,–,–,–,–,> 15%,O=C(CSc1nc2c(cnn2-c2ccccc2)c(=O)[nH]1)NCc1ccc(F)cc1 [Compound G873-0031]
